Tests used:
adult C. felis fleas = assay: Ingestion activity against adult Ctenocephalides felis (artificial membrane feeding, bovine blood); format: in vivo; conditions: bovine blood via artificial membrane, motility 48 h post treatment, read-out: EC50 (ingestion activity, % motility reduction)
Procedure: Example 6: Screening Method to Test Ingestion Activity of Compounds of Formula (I), (Ia) or (Ib) Against Adult Ctenocephalides felis Compounds of formula (I), (Ia) and (Ib) dissolved in 100% DMSO are added to bovine blood and offered via an artificial membrane feeding system to adult C. felis fleas. The motility of fleas is then visually inspected 48 h post treatment. Efficacy is expressed in % motility reduction compared to controls containing blood treated with DMSO only. A dose response series is implemented to determine EC50 values.

Plutella xylostella = assay: Insecticidal test on Plutella xylostella (Chinese cabbage seedling dip); format: in vivo; conditions: 144 h, 6 days after dip treatment, 25° C., read-out: activity level (corrected mortality rate)
Procedure: Example 14: Insecticidal Test on Plutella xylostella
The compounds of formula (I), (Ia) and (Ib) of the present invention or salts thereof are separately dispersed in water and diluted to 50 ppm. Ten adults of Plutella xylostella are released onto Chinese cabbage seedlings and allowed to lay eggs thereon. 2 days after the release of the adults, the seedling is dipped in the dispersion for about 30 seconds. After air dried, the seedling is kept in a room at 25° C. 6 days after the dip treatment, the numbers of the dead and alive insects are counted. The corrected mortality rate is calculated according to the following formula and the insecticidal activity was evaluated according to the following criteria.
[formula] • A: the corrected mortality rate is 100% • B: the corrected mortality rate is 90 to 99% • C: the corrected mortality rate is 80 to 89% • D: the corrected mortality rate is 50 to 79%

[1] = test system: adult R. sanguineus ticks; assay: Contact activity against adult Rhipicephalus sanguineus (coated vial); format: in vivo; conditions: mortality at 48 hours post-treatment, 24° C., 95% relative humidity, read-out: EC50 (contact activity, percentage mortality)
Procedure: Screening Method to Test Contact Activity of Compounds of Formula (I), (Ia) or (Ib) Against Adult Rhipicephalus Sanguineus Compounds of formula (I), (Ia) and (Tb) formulated in 100% DMSO are diluted in a solution containing acetone and Triton X-100 (0.02%). The resulting formulation is used to coat the inner walls of glass scintillation vials and the filter paper covering the cap of the vial. Once dried, ten adult R. sanguineus ticks are added to the vials. The vials are incubated at 24° C., 95% relative humidity, and 12 hours of light/12 hours of dark until evaluation. Ticks are visually evaluated for mortality at 48 hours post-treatment. Compound efficacy at a given dose is expressed as percentage mortality. A dose response series is implemented to determine EC50 values.

[2] = test system: 3rd-instar nymphs of Laodelphax striatellus; assay: Insecticidal test on Laodelphax striatellus (rice seedling dip); format: in vivo; conditions: 192 h, 8 days after inoculation, 25° C., read-out: activity level (corrected mortality rate)
[3] = test system: adult Ctenocephalides felis fleas; assay: Contact activity against adult Ctenocephalides felis (coated pipe cleaner in vial); format: in vivo; conditions: adult C. felis, mortality at 72 hours post-treatment, 22° C., 80% relative humidity, read-out: EC50 (contact activity, percentage mortality)
Procedure: Example 4: Screening Method to Test Contact Activity of Compounds of Formula (I), (Ia) or (Ib) Against Adult Ctenocephalides felis
Compounds of formula (I), (Ia) and (Ib) dissolved in 100% DMSO are diluted in acetone to a desired concentration. The resulting formulation is used to coat the fibers of a 0.5-inch-long piece of pipe cleaner placed in a glass scintillation vial. The vial is capped with a rubber gasket and filter paper insert. After the acetone has evaporated, ten adult Ctenocephalides felis fleas are added to each vial. The vials are then incubated at 22° C., 80% relative humidity, and 12 hours of light/12 hours of dark until a visual evaluation for mortality is performed at 72 hours post-treatment. Compound efficacy at a given dose is expressed as percentage mortality and adjusted to remove background mortality observed in control vials containing DMSO only. A dose response series of treated vials is implemented to determine EC50 values.

[4] = test system: 2nd-instar larvae of Spodoptera litura; assay: whole plant or invertebrate; conditions: in Brassica oleracea, foliar, 192 h, read-out: activity level (corrected mortality rate)

Structure (SMILES) | EC50 (adult C. felis fleas) [µM] | mortality at 50 ppm (Plutella xylostella) [%] | EC50 [1] [µM] | mortality at 50 ppm [2] [%] | EC50 [3] [µM] | mortality at 50 ppm [4] [%]
CCS(=O)(=O)c1cc(-c2nnnn2C2CC2)cnc1-c1nc2cc(C(F)(F)C(F)(F)F)nnc2n1C [Compound 1, 6-[5-(1-cyclopropyltetrazol-5-yl)-3-ethylsulfonyl-2-pyridyl]-7-methyl-3-(1,1,2,2,2-pentafluoroethyl)imidazo[4,5-c]pyridazine] | < 10 | 100 | 10 to 100 | 100 | – | –
CCS(=O)(=O)c1cc(-n2nnnc2C2CC2)cnc1-c1nc2cc(C(F)(F)C(F)(F)F)nnc2n1C [Compound 2, 6-[5-(5-cyclopropyltetrazol-1-yl)-3-ethylsulfonyl-2-pyridyl]-7-methyl-3-(1,1,2,2,2-pentafluoroethyl)imidazo[4,5-c]pyridazine] | 10 to 100 | – | – | – | – | –
CCS(=O)(=O)c1cc(-c2nnnn2C)cnc1-c1nc2cc(C(F)(F)C(F)(F)F)nnc2n1C [Compound 4] | < 10 | – | – | 100 | – | –
CCS(=O)(=O)c1cc(-c2nnn(C)n2)cnc1-c1nc2cc(S(=O)(=O)C(F)(F)F)nnc2n1C [Compound 9] | < 10 | 100 | – | 100 | – | 100
CCS(=O)(=O)c1cc(-c2nnn(C(C)C)n2)cnc1-c1nc2cc(C(F)(F)C(F)(F)F)nnc2n1C [Compound 10] | – | 100 | < 10 | 100 | – | –
CCS(=O)(=O)c1cc(-c2nnnn2-c2ccccc2)cnc1-c1nc2cc(C(F)(F)C(F)(F)F)nnc2n1C [Compound 16] | – | 100 | – | – | – | –

Second part, led by results:

EC50 (adult C. felis fleas) [µM] | Structure (SMILES) | mortality at 50 ppm (Plutella xylostella) [%] | EC50 [1] [µM] | mortality at 50 ppm [2] [%] | EC50 [3] [µM] | mortality at 50 ppm [4] [%]
< 10 | CCn1nnnc1-c1cnc(-c2nc3cc(C(F)(F)C(F)(F)F)nnc3n2C)c(S(=O)(=O)CC)c1 [Compound 6] | – | – | – | – | –
10 to 100 | CCS(=O)(=O)c1cc(-c2nnn(C)n2)cnc1-c1nc2cc(C(F)(F)C(F)(F)F)nnc2n1C [Compound 7, 6-[3-ethylsulfonyl-5-(2-methyltetrazol-5-yl)-2-pyridyl]-7-methyl-3-(1,1,2,2,2-pentafluoroethyl)imidazo[4,5-c]pyridazine] | – | 10 to 100 | – | < 10 | –
10 to 100 | CCS(=O)(=O)c1cc(-c2nnn(C)n2)cnc1-c1ncc(C(=O)NCC(F)(F)F)n1C [Compound 8] | – | – | – | – | –
10 to 100 | CCS(=O)(=O)c1cc(-n2nnnc2C)cnc1-c1nc2cc(C(F)(F)C(F)(F)F)nnc2n1C [Compound 12] | – | – | – | – | –
< 10 | CCS(=O)(=O)c1cc(-c2nnn(C)n2)cnc1-c1nc2cc(C(F)(F)C(F)(F)F)cnc2n1C [Compound 14] | 100 | 10 to 100 | – | 10 to 100 | 100
< 10 | CCS(=O)(=O)c1cc(-c2nnnn2C)cnc1-c1nc2cc(C(F)(F)C(F)(F)F)cnc2n1C [Compound 15] | 100 | – | – | – | –

— patent US20240300957A1, “TETRAZOLE-SUBSTITUTED ETHYL-SULFONE / SULFOXIMINE-PYRIDINE DERIVATIVES” (Boehringer Ingelheim Vetmedica GmbH, priority 2023, published 2024)
